Molecules are shown by their SMILES.

The first experiment deals with gastric mucosal lesions produced by ethanol. As to the kind of experiment: prevention of gastric mucosal lesions produced by ethanol in rats (cytoprotective/anti-ulcer, Robert et al.). It counts as in vivo. The settings on record: Rattus norvegicus; 10 mg/kg, oral, usually 1 hour before ethanol; male Sprague-Dawley rats; read-out: percentage inhibition of lesion formation. As for the experimental part:
The rats were placed in individual cages and denied water 2 hours or more before testing. At a fixed time before administration of ethanol (usually 1 hour), the animals were orally administered either the test compound or its water-carboxymethylcellulose vehicle. Ethanol was then administered orally at a dose of 1 mL per animal. One hour after administration of the ethanol, the animals were sacrificed and their stomachs removed, cut along the greater curvature and flushed clean with tap water. Macroscopic lesions on the gastric mucosa were graded from 0-3 based upon the absence of lesions to the presence of lesions which approximate 6 millimeters in length. Comparison of the treated group with the control group permits expression of the results as percentage inhibition of lesion formation as a direct measure of cytoprotection. […] The results of these studies are given at the end of each example illustrating the preparation of the tested compound, supra, as the percent inhibition or ED50 where the latter value was determined.
Consider `Cn1cccc1/C=C/C1=CC(=O)C(C)(C)O1` [Example 16, 2,2-Dimethyl-5-[2-(1-methyl-2-pyrrolyl)ethenyl]-3(2H)-furanone], for which the inhibition in vivo at 10 mg/kg came to 32%. Consider `CC1(c2ccc(F)cc2)OC(/C=C/c2ccccn2)=CC1=O` (stereo not drawn) [Example 32, 2-Methyl-2-(4-fluorophenyl)-5-[2-(2-pyridinyl)ethenyl]-3(2H)-furanone], for which the inhibition in vivo at 10 mg/kg came to 92%. On the same count and under the same terms, in the case of `CC1(c2ccccc2)OC(/C=C/c2ccncc2)=CC1=O` (stereo not drawn) [Example 27, 2-Methyl-2-phenyl-5-[2-(4-pyridinyl)ethenyl]-3(2H)-furanone] it was 44%; in that of `CC1(C)OC(/C=C/c2cnccn2)=CC1=O` [Example 21, 2,2-Dimethyl-5-[2-(2-pyrazinyl)ethenyl]-3(2H)-furanone], 56%.

Regarding `CC1(C)OC(/C=C/c2cccs2)=CC1=O` [Example 23, 2,2-Dimethyl-5-[2-(2-thienyl)ethenyl]-3(2H)-furanone], the inhibition in vivo at 10 mg/kg came to 1%. Still for that read-out and setting: the figure for `CC1(c2ccc(F)cc2)OC(/C=C/c2ccsc2)=CC1=O` (stereo not drawn) [Example 33, 2-(4-Fluorophenyl)-2-methyl-5-[2-(3-thienyl)ethenyl]-3(2H)-furanone] is 22%; for `CC1(c2ccccc2)OC(/C=C/c2ccc(C#N)cc2)=CC1=O` (stereo not drawn) [Example 29, 4-[2-[2,3-Dihydro-2-methyl-3-oxo-2-phenyl-5-furanyl]ethenyl]benzonitrile] it is 4%. The same measure, in the same setting: the figure for `CC1(c2ccc(F)cc2)OC(/C=C/c2ccc(C#N)cc2)=CC1=O` (stereo not drawn) [Example 31, 4-[2-[2,3-Dihydro-2-(4-fluorophenyl)-2-methyl-3-oxo-5-furanyl]ethenyl]benzonitrile] is 1%; for `CC1(C)OC(/C=C/c2ccoc2)=CC1=O` [Example 25, 5-[2-(3-Furanyl)ethenyl]-2,2-dimethyl-3(2H)-furanone] it is 35%.

In the case of `CC1(C)OC(/C=C/c2cc3ccccc3s2)=CC1=O` [Example 24, 5-[2-(Benzo[b]thien-2-yl)ethenyl]-2,2-dimethyl-3(2H)-furanone], the inhibition in vivo at 10 mg/kg was 17%.

The experiment is the same for the next values; noted with them: Rattus norvegicus; 25 mg/kg, oral, usually 1 hour before ethanol; male Sprague-Dawley rats; read-out: percentage inhibition of lesion formation.
Turning to `CC1(C)OC(/C=C/c2ccc(F)cc2F)=CC1=O` [Example 3, 5-[2-(2,4-Difluorophenyl)ethenyl]-2,2-dimethyl-3(2H)-furanone], the inhibition in vivo at 25 mg/kg is 52%.

For the compound `CC1(C)OC(/C=C/c2ccc(F)c(F)c2)=CC1=O` [Example 4, 5-[2-(3,4-Difluorophenyl)ethenyl]-2,2-dimethyl-3(2H)-furanone], the inhibition in vivo at 25 mg/kg turned out to be 47%. Same read-out and setting: the figure for `COc1cc(/C=C/C2=CC(=O)C(C)(C)O2)cc(OC)c1OC` [Example 1, 2,2-Dimethyl-5-[2-(3,4,5-trimethoxyphenyl)ethenyl]-3(2H)-furanone] is 81%; for `CSc1ccc(/C=C/C2=CC(=O)C(C)(C)O2)cc1` [Example 12, (E)-2,2-Dimethyl-5-[2-[4-(methylthio)phenyl]ethenyl]-3(2H)-furanone] it is 5%. The same measure, in the same setting: the figure for `CC1(C)OC(/C=C/c2ccc(S(C)(=O)=O)cc2)=CC1=O` [Example 13, 2,2-Dimethyl-5-[2-[4-(methylsulfonyl)phenyl]ethenyl]-3(2H)-furanone] is 56%. Regarding `CC1(C)OC(/C=C/c2ccc(Br)cc2)=CC1=O` [Example 5, (E)-2,2-Dimethyl-5-[2-(4-bromophenyl)ethenyl]-3(2H)-furanone], the inhibition in vivo at 25 mg/kg turned out to be 63%. The same measure, in the same setting: in the case of `CC1(C)OC(/C=C/c2ccc(C(F)(F)F)cc2)=CC1=O` [Example 11, 2,2-Dimethyl-5-[2-[4-(trifluoromethyl)phenyl]ethenyl]-3(2H)-furanone] it was 30%.

The experiment is the same for the next values; noted with them: Rattus norvegicus; oral, usually 1 hour before ethanol; male Sprague-Dawley rats; calculated from a series of dosage levels; read-out: ED50 (dose at which half the animals did not develop lesions significantly different from the control group).
The term ED50 denotes the dose that gives a 50% effect, or the effect in half of the subjects. On to `CC1(C)OC(/C=C/c2ccc(C#N)cc2)=CC1=O` [Example 14, 4-[2-(2,3-Dihydro-2,2-dimethyl-3-oxo-5-furanyl)ethenyl]benzonitrile], for which the 50% effective dose (ED50) is 15 mg/kg.

Turning to `CC1(C)OC(/C=C/c2ccncc2)=CC1=O` [Example 18, 2,2-Dimethyl-5-[2-(4-pyridinyl)ethenyl]-3(2H)-furanone], the ED50 is 4 mg/kg. The same measure, in the same setting: the figure for `CC1(c2ccc(F)cc2)OC(/C=C/c2ccccn2)=CC1=O` (stereo not drawn) [Example 32, 2-Methyl-2-(4-fluorophenyl)-5-[2-(2-pyridinyl)ethenyl]-3(2H)-furanone] is 3.5 mg/kg; for `CC1(c2ccccc2)OC(/C=C/c2cccnc2)=CC1=O` (stereo not drawn) [Example 26, 2-Phenyl-2-methyl-5-[2-(3-pyridinyl)ethenyl]-3(2H)-furanone] it is 5 mg/kg; for `CC1(C)OC(/C=C/c2ccccn2)=CC1=O` [Example 17, 2,2-Dimethyl-5-[2-(2-pyridinyl)ethenyl]-3(2H)-furanone] it is 9 mg/kg. Regarding `CC1(C)OC(/C=C/c2ccc(Cl)cc2)=CC1=O` [Example 6, 2,2-Dimethyl-5-[2-(4-chlorophenyl)ethenyl]-3(2H)-furanone], the median effective dose (ED50) is 10.3 mg/kg.

In the case of `CC1(C)OC(/C=C/c2ccsc2)=CC1=O` [Example 22, 2,2-Dimethyl-5-[2-(3-thienyl)ethenyl]-3(2H)-furanone], the ED50 is 4 mg/kg. Same read-out and setting: in the case of `CC1(C)OC(/C=C/c2ccc(F)cc2)=CC1=O` [Example 2, 2,2-Dimethyl-5-[2-(4-fluorophenyl)ethenyl]-3(2H)-furanone] it was 11 mg/kg; in that of `CC1(c2ccccc2)OC(/C=C/c2ccccn2)=CC1=O` (stereo not drawn) [Example 28, 2-Methyl-2-phenyl-5-[2-(2-pyridinyl)ethenyl]-3(2H)-furanone], 6 mg/kg. For `CC1(C)OC(/C=C/c2cccnc2)=CC1=O` [Example 19, 2,2-Dimethyl-5-[2-(3-pyridinyl)ethenyl]-3(2H)-furanone], the median effective dose (ED50) is 9.3 mg/kg. For `CC1(C)OC(/C=C/c2ccnc3ccccc23)=CC1=O` [Example 20, 5-[2-(4-Quinolinyl)ethenyl]-2,2-dimethyl-3(2H)-furanone], the ED50 is 2.5 mg/kg.

Consider `CC1(C)OC(/C=C/c2ccc(S(C)(=O)=O)cc2)=CC1=O` [Example 13, 2,2-Dimethyl-5-[2-[4-(methylsulfonyl)phenyl]ethenyl]-3(2H)-furanone], for which the ED50 is 10.6 mg/kg.

With `CC1(C)OC(/C=C/c2cc(Cl)cc(Cl)c2)=CC1=O` [Example 10, 5-[2-(3,5-Dichlorophenyl)ethenyl]-2,2-dimethyl-3(2H)-furanone], the median effective dose (ED50) is 9 mg/kg.

The record behind these values is patent US5010102A, “Anti-ulcer 5-(2-substituted ethenyl)-3(2H)-furanones” (American Home Products Corp., priority 1990, dated 1991).
